Reference: ChEMBL document CHEMBL4400521, “Plasma kallikrein cleaves and inactivates apelin-17: Palmitoyl- and PEG-extended apelin-17 analogs as metabolically stable blood pressure-lowering agents” (Eur J Med Chem, 2019)
Activity calls are given as the source filed them. The calls are words filed in the database; no cut-off is given here. Non-standard residues stand in square brackets, D forms with d. Residues, ends and D or L forms follow the SMILES beside them. *: point of attachment. Phe(4-Br) = N[C@@H](Cc1ccc(Br)cc1)C(=O)O; Fmoc = O=C(OCC1c2ccccc2-c2ccccc21)*; PEG6 = NCCOCCOCCOCCOCCOCCOCCC(=O)O; Palmitoyl = CCCCCCCCCCCCCCCC(=O)*; NMeL = CN[C@@H](CC(C)C)C(=O)O; Nle = CCCC[C@H](N)C(=O)O; Aib = CC(C)(N)C(=O)O

How the values were obtained:
[1] = molecular target: T1, Apelin receptor (Rattus norvegicus) (UniProt Q9JHG3); test: Displacement of [125I]-(Glp1,Nle11,[…])apelin-13 from recombinant rat EGFP-fused apelin receptor expressed in CHO cell membrane measured after 3 hrs; type: cell membranes
T1 sequence (whole entry): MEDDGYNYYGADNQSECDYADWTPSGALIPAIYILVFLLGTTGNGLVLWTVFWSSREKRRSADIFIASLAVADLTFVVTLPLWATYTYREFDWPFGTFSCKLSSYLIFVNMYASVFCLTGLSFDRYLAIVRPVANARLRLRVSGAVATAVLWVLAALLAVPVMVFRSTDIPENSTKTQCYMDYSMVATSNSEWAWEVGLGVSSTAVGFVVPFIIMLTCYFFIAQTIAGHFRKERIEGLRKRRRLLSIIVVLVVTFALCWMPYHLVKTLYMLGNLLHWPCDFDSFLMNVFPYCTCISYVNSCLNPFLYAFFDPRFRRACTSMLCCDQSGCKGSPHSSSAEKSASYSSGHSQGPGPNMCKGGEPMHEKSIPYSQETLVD

Mus musculus [2] = test: Blood pressure lowering activity in anesthetized mouse assessed as change in mean arterial blood pressure at 1.4 uM/kg, iv; type: functional; conditions: TDE = time-dependent effect
[3] = system: CC[C@H](C)[C@H](NC(=O)[C@H](CCCNC(=N)N)NC(=O)[C@H](CC(C)C)NC(=O)[C@H](CO)NC(=O)[C@H](CCCNC(=N)N)NC(=O)[C@H](Cc1ccccc1)NC(=O)[C@@H]1CCCN1C(=O)[C@H](CO)NC(=O)[C@H](Cc1ccccc1)NC(=O)CNC(=O)c1ccccc1N)C(=O)N[C@@H](CCC(N)=O)C(=O)NCCNc1ccc([N+](=O)[O-])cc1[N+](=O)[O-]; test: (§1) Substrate activity at human KLKB1 assessed as Km by fluorescence assay; type: ADME
[4] = system: CC[C@H](C)[C@H](NC(=O)[C@H](CCCNC(=N)N)NC(=O)[C@H](CO)NC(=O)[C@H](CO)NC(=O)[C@H](CCCNC(=N)N)NC(=O)[C@H](Cc1ccccc1)NC(=O)[C@@H]1CCCN1C(=O)[C@H](CO)NC(=O)[C@H](Cc1ccccc1)NC(=O)CNC(=O)c1ccccc1N)C(=O)N[C@@H](CCC(N)=O)C(=O)NCCNc1ccc([N+](=O)[O-])cc1[N+](=O)[O-]; test: as §1; type: ADME
[5] = system: CSCC[C@H](NC(=O)[C@H](CO)NC(=O)[C@H](CO)NC(=O)[C@H](CC(C)C)NC(=O)[C@@H](N)CO)C(=O)N[C@H](C(=O)N[C@@H](CCCNC(=N)N)C(=O)N[C@H](C(=O)N[C@H](C(=O)NCC(=O)NCC(=O)O)C(C)C)C(C)C)[C@@H](C)O; test: Substrate activity at human KLKB1 assessed as Km by spectrofluorimetric method; type: ADME
[6] = system: CCCC[C@H](NC(=O)[C@@H]1CCCN1C(=O)CNC(=O)[C@H](CCCCN)NC(=O)[C@H](Cc1c[nH]cn1)NC(=O)[C@H](CO)NC(=O)[C@H](CC(C)C)NC(=O)[C@H](CCCNC(=N)N)NC(=O)[C@@H]1CCCN1C(=O)[C@H](CCCNC(=N)N)NC(=O)[C@H](CCC(N)=O)NC(=O)[C@H](CCCNC(=N)N)NC(=O)[C@H](CCCNC(=N)N)NC(=O)[C@H](Cc1ccccc1)NC(=O)[C@@H](N)CCCCN)C(=O)NC(C)(C)C(=O)N[C@@H](Cc1ccc(Br)cc1)C(=O)O; test: (§2) Substrate activity at recombinant human C-terminal His6-tagged KLKB1 (Pro19 to Ser262 residues) expressed in mammalian expression system assessed as Km measured after 30 to 60 mins by LC-MS analysis; type: ADME
[7] = system: CCCC[C@H](NC(=O)[C@@H]1CCCN1C(=O)CNC(=O)[C@H](CCCCN)NC(=O)[C@H](Cc1c[nH]cn1)NC(=O)[C@H](CO)NC(=O)[C@H](CC(C)C)N(C)C(=O)[C@H](CCCNC(=N)N)NC(=O)[C@@H]1CCCN1C(=O)[C@H](CCCNC(=N)N)NC(=O)[C@H](CCC(N)=O)NC(=O)[C@H](CCCNC(=N)N)NC(=O)[C@H](CCCNC(=N)N)NC(=O)[C@H](Cc1ccccc1)NC(=O)[C@@H](N)CCCCN)C(=O)NC(C)(C)C(=O)N[C@@H](Cc1ccc(Br)cc1)C(=O)O; test: as §2; type: ADME
Mus musculus [8] = test: Blood pressure lowering activity in anesthetized mouse assessed as increase in heart rate at 1.4 uM/kg, iv measured up to 60 mins; type: functional, organism-based

Sequence of Plasma kallikrein (Homo sapiens) (chain, as listed by the source): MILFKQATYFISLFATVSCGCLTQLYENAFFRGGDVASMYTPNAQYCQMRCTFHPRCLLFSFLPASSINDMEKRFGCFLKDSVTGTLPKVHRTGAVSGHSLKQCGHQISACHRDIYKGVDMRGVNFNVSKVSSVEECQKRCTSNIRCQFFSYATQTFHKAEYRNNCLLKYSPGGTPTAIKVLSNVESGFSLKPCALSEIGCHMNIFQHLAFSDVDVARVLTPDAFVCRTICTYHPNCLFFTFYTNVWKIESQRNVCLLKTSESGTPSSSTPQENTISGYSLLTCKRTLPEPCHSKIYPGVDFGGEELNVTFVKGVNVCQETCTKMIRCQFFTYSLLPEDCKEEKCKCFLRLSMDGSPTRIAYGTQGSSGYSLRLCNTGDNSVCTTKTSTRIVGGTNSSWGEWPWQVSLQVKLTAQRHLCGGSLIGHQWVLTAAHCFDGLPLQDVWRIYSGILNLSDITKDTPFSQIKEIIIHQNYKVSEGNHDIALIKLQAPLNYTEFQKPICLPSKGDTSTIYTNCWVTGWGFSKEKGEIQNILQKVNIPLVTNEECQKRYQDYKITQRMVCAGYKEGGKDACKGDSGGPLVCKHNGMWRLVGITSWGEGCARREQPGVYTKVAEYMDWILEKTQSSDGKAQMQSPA

| Compound | displacement activity (active/inactive) [1] | Activity (Mus musculus [2]) | other results |
| --- | --- | --- | --- |
| CCCC[C@H](NC(=O)[C@@H]1CCCN1C(=O)CNC(=O)[C@H](CCCCN)NC(=O)[C@H](Cc1c[nH]cn1)NC(=O)[C@H](CO)NC(=O)[C@H](CC(C)C)N(C)C(=O)[C@H](CCCNC(=N)N)NC(=O)[C@@H]1CCCN1C(=O)[C@H](CCCNC(=N)N)NC(=O)[C@H](CCC(N)=O)NC(=O)[C@H](CCCNC(=N)N)NC(=O)[C@H](CCCNC(=N)N)NC(=O)[C@H](Cc1ccccc1)NC(=O)[C@@H](N)CCCCN)C(=O)NC(C)(C)C(=O)N[C@@H](Cc1ccc(Br)cc1)C(=O)O (H-KFRRQRPR[NMeL]SHKGP[Nle][Aib][Phe(4-Br)]-OH) | Active | Tde | – |
| CCCCCCCCCCCCCCCC(=O)N[C@@H](CCCCN)C(=O)N[C@@H](Cc1ccccc1)C(=O)N[C@@H](CCCNC(=N)N)C(=O)N[C@@H](CCCNC(=N)N)C(=O)N[C@@H](CCC(N)=O)C(=O)N[C@@H](CCCNC(=N)N)C(=O)N1CCC[C@H]1C(=O)N[C@@H](CCCNC(=N)N)C(=O)N[C@@H](CC(C)C)C(=O)N[C@@H](CO)C(=O)N[C@@H](Cc1cnc[nH]1)C(=O)N[C@@H](CCCCN)C(=O)NCC(=O)N1CCC[C@H]1C(=O)N[C@@H](CCCC)C(=O)NC(C)(C)C(=O)N[C@@H](Cc1ccc(Br)cc1)C(=O)O (Palmitoyl-KFRRQRPRLSHKGP[Nle][Aib][Phe(4-Br)]-OH) | Active | Tde | – |
| CCCC[C@H](NC(=O)[C@@H]1CCCN1C(=O)CNC(=O)[C@H](CCCCN)NC(=O)[C@H](Cc1cnc[nH]1)NC(=O)[C@H](CO)NC(=O)[C@H](CC(C)C)N(C)C(=O)[C@H](CCCNC(=N)N)NC(=O)[C@@H]1CCCN1C(=O)[C@H](CCCNC(=N)N)NC(=O)[C@H](CCC(N)=O)NC(=O)[C@H](CCCNC(=N)N)NC(=O)[C@H](CCCNC(=N)N)NC(=O)[C@H](Cc1ccccc1)NC(=O)[C@H](CCCCN)NC(=O)CCOCCOCCOCCOCCOCCOCCNC(=O)OCC1c2ccccc2-c2ccccc21)C(=O)NC(C)(C)C(=O)N[C@@H](Cc1ccc(Br)cc1)C(=O)O ({Fmoc-PEG6}-KFRRQRPR[NMeL]SHKGP[Nle][Aib][Phe(4-Br)]-OH) | Active | Tde | – |
| CCCC[C@H](NC(=O)[C@@H]1CCCN1C(=O)CNC(=O)[C@H](CCCCN)NC(=O)[C@H](Cc1cnc[nH]1)NC(=O)[C@H](CO)NC(=O)[C@H](CC(C)C)NC(=O)[C@H](CCCNC(=N)N)NC(=O)[C@@H]1CCCN1C(=O)[C@H](CCCNC(=N)N)NC(=O)[C@H](CCC(N)=O)NC(=O)[C@@H](N)CCCNC(=N)N)C(=O)NC(C)(C)C(=O)N[C@@H](Cc1ccc(Br)cc1)C(=O)O (H-RQRPRLSHKGP[Nle][Aib][Phe(4-Br)]-OH) | Active | Tde | – |
| CSCC[C@H](NC(=O)[C@@H]1CCCN1C(=O)CNC(=O)[C@H](CCCCN)NC(=O)[C@H](Cc1cnc[nH]1)NC(=O)[C@H](CO)NC(=O)[C@H](CC(C)C)NC(=O)[C@H](CCCNC(=N)N)NC(=O)[C@@H]1CCCN1C(=O)[C@H](CCCNC(=N)N)NC(=O)[C@H](CCC(N)=O)NC(=O)[C@H](CCCNC(=N)N)NC(=O)[C@H](CCCNC(=N)N)NC(=O)[C@H](Cc1ccccc1)NC(=O)[C@@H](N)CCCCN)C(=O)N1CCC[C@H]1C(=O)N[C@@H](Cc1ccccc1)C(=O)O | – | Tde | – |
| Plasma kallikrein (Homo sapiens) | – | – | Km [3]: 1.8 µM; Km [4]: 2.2 µM; Km [5]: 2.4 µM; kcat [5]: 0.001 s⁻¹; kcat/Km [5]: 420 M⁻¹ s⁻¹; Km [6]: 30 µM; Vmax [6]: 0.316 µmol/min; kcat [6]: 1.4 s⁻¹; kcat/Km [6]: 47000 M⁻¹ s⁻¹; Km [7]: 245 µM; Vmax [7]: 3.71 µmol/min; kcat [7]: 16.5 s⁻¹; kcat/Km [7]: 67000 M⁻¹ s⁻¹ |
| CCCC[C@H](NC(=O)[C@@H]1CCCN1C(=O)CNC(=O)[C@H](CCCCN)NC(=O)[C@H](Cc1c[nH]cn1)NC(=O)[C@H](CO)NC(=O)[C@H](CC(C)C)NC(=O)[C@H](CCCNC(=N)N)NC(=O)[C@@H]1CCCN1C(=O)[C@H](CCCNC(=N)N)NC(=O)[C@H](CCC(N)=O)NC(=O)[C@H](CCCNC(=N)N)NC(=O)[C@H](CCCNC(=N)N)NC(=O)[C@H](Cc1ccccc1)NC(=O)[C@@H](N)CCCCN)C(=O)NC(C)(C)C(=O)N[C@@H](Cc1ccc(Br)cc1)C(=O)O (H-KFRRQRPRLSHKGP[Nle][Aib][Phe(4-Br)]-OH) | Active | Tde | – |
| CCCCCCCCCCCCCCCC(=O)N[C@@H](CCCCN)C(=O)N[C@@H](Cc1ccccc1)C(=O)N[C@@H](CCCNC(=N)N)C(=O)N[C@@H](CCCNC(=N)N)C(=O)N[C@@H](CCC(N)=O)C(=O)N[C@@H](CCCNC(=N)N)C(=O)N1CCC[C@H]1C(=O)N[C@@H](CCCNC(=N)N)C(=O)N(C)[C@@H](CC(C)C)C(=O)N[C@@H](CO)C(=O)N[C@@H](Cc1cnc[nH]1)C(=O)N[C@@H](CCCCN)C(=O)NCC(=O)N1CCC[C@H]1C(=O)N[C@@H](CCCC)C(=O)NC(C)(C)C(=O)N[C@@H](Cc1ccc(Br)cc1)C(=O)O (Palmitoyl-KFRRQRPR[NMeL]SHKGP[Nle][Aib][Phe(4-Br)]-OH) | Active | – | Activity (Mus musculus [8]): Active |
| CCCC[C@H](NC(=O)[C@@H]1CCCN1C(=O)CNC(=O)[C@H](CCCCN)NC(=O)[C@H](Cc1cnc[nH]1)NC(=O)[C@H](CO)NC(=O)[C@H](CC(C)C)N(C)C(=O)[C@H](CCCNC(=N)N)NC(=O)[C@@H]1CCCN1C(=O)[C@H](CCCNC(=N)N)NC(=O)[C@H](CCC(N)=O)NC(=O)[C@@H](N)CCCNC(=N)N)C(=O)NC(C)(C)C(=O)N[C@@H](Cc1ccc(Br)cc1)C(=O)O (H-RQRPR[NMeL]SHKGP[Nle][Aib][Phe(4-Br)]-OH) | Active | Tde | – |
| CCCC[C@H](NC(=O)[C@@H]1CCCN1C(=O)CNC(=O)[C@H](CCCCN)NC(=O)[C@H](Cc1cnc[nH]1)NC(=O)[C@H](CO)NC(=O)[C@H](CC(C)C)NC(=O)[C@H](CCCNC(=N)N)NC(=O)[C@@H]1CCCN1C(=O)[C@H](CCCNC(=N)N)NC(=O)[C@H](CCC(N)=O)NC(=O)[C@H](CCCNC(=N)N)NC(=O)[C@H](CCCNC(=N)N)NC(=O)[C@H](Cc1ccccc1)NC(=O)[C@H](CCCCN)NC(=O)CCOCCOCCOCCOCCOCCOCCNC(=O)OCC1c2ccccc2-c2ccccc21)C(=O)NC(C)(C)C(=O)N[C@@H](Cc1ccc(Br)cc1)C(=O)O ({Fmoc-PEG6}-KFRRQRPRLSHKGP[Nle][Aib][Phe(4-Br)]-OH) | Active | Tde | – |
